Patent US20260078108A1, “SOLID FORMS OF A ROCK INHIBITOR” (REDX PHARMA PLC, priority 2022, published 2026)
pIC50: −log10 of the molar value.

How the values were obtained:
ROCK2 = ROCK2 (Homo sapiens, UniProt O75116); test: Activity against kinase ROCK2; assay type: biochemical; settings: comparison of enantiomers
Serotonin transporter = biological target: T1, Serotonin transporter (Homo sapiens, UniProt P31645); test: CEREP panel serotonin transporter uptake (h), [3H]5HT incorporation; assay type: cell-based; settings: HCl salt tested; [3H]5HT incorporation in cells
T1 construct: expressed in transfected cells
T1 sequence (P31645 whole entry): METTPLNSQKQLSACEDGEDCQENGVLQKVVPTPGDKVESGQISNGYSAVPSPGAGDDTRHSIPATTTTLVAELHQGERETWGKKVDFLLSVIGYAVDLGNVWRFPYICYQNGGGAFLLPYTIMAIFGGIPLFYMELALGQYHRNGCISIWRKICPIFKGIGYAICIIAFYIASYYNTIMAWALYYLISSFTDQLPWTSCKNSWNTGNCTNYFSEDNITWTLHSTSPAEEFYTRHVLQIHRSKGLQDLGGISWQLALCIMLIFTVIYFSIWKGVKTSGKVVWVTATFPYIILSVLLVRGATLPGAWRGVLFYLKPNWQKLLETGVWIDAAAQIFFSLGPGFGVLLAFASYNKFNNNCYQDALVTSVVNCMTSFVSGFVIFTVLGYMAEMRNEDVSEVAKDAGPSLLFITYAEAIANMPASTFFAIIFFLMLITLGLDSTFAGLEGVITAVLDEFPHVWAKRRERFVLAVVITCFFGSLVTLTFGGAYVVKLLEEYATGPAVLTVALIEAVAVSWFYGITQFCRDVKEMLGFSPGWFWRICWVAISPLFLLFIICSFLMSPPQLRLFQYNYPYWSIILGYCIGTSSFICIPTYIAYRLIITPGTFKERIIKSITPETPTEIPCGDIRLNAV
Description: (§1) The use of in vitro pharmacological screening against a diverse range of targets (receptors, ion channels, enzymes and transporters) is used to identify undesirable off-target activity that may cause adverse drug reactions in humans. Screening panels (e.g. SafetyScreen44™ Panel, Eurofins) comprise a selection of off-targets linked with known issues in humans that could hinder or halt the development of drug candidates or market withdrawal if discovered after a drug is approved. The HCl salts of the S enantiomer and the R enantiomer of compound A were tested against a panel of such targets.
(§2) The tests were carried out according to the methods described in the following tables and indicated literature references.

M1 (h) [1] = biological target: T2, M1 (h) (Homo sapiens, UniProt P11229); test: CEREP panel M1 (h) agonist effect, intracellular Ca2+ fluorimetry; assay type: cell-based; settings: HCl salt tested, CHO cells
T2 construct: expressed in transfected cells; host or cells: CHO cells
T2 sequence (P11229 1-460): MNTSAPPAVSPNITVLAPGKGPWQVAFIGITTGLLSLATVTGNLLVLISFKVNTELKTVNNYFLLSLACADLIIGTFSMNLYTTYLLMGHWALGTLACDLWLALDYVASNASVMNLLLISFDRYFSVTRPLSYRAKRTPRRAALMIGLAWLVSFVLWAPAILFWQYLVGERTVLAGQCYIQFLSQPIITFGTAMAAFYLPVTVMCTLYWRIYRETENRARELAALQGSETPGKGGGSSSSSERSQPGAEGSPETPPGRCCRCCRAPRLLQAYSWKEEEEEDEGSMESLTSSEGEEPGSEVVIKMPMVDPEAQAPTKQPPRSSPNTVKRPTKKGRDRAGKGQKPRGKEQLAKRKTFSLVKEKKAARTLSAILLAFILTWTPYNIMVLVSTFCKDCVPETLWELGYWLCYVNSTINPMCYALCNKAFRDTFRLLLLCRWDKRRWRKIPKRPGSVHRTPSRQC
Description: as §1, §2

CB2 (h) = biological target: T3, CB2 (h) (Homo sapiens, UniProt P34972); test: CEREP panel CB2 (h) agonist effect, cAMP HTRF; assay type: cell-based; settings: HCl salt tested, CHO cells
T3 construct: expressed in transfected cells; host or cells: CHO cells
T3 sequence (P34972 whole entry): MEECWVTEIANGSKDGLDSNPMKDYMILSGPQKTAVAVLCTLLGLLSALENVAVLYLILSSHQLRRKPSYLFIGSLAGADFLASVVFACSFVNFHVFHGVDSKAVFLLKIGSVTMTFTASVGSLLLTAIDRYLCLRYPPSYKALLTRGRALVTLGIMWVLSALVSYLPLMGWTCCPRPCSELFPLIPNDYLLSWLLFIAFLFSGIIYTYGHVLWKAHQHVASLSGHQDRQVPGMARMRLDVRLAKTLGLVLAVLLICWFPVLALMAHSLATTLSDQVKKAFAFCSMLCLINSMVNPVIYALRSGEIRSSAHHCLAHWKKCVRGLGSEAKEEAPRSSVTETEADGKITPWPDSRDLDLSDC
Description: as §1, §2

M2 (h) = biological target: T4, M2 (h) (Homo sapiens, UniProt P08172); test: CEREP panel M2 (h) antagonist effect, cAMP HTRF; assay type: cell-based; settings: HCl salt tested; CHO cells, acetylcholine (300 nM)
T4 construct: expressed in transfected cells; host or cells: CHO cells
T4 sequence (P08172 1-466): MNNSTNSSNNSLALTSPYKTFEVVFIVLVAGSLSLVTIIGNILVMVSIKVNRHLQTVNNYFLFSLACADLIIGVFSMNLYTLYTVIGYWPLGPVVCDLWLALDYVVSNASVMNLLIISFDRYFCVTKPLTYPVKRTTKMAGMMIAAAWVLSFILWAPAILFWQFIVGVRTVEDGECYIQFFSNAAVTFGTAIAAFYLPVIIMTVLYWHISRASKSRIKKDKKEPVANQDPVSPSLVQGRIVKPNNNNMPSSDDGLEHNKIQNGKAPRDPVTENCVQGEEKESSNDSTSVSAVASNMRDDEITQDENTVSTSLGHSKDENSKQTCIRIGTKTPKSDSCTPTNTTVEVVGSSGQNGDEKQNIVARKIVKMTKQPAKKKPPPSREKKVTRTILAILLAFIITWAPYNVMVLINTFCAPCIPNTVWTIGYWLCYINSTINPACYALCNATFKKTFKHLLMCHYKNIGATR
Description: as §1, §2

M1 (h) [2] = biological target: T2, M1 (h); test: CEREP panel M1 (h) antagonist effect, intracellular Ca2+ fluorimetry; assay type: cell-based; settings: HCl salt tested; CHO cells, acetylcholine (10 nM)
Description: as §1, §2

PKCd = PKCd (Homo sapiens, UniProt Q05655); test: Kinase panel 33P-ATP filter assay, PKCd; assay type: biochemical; settings: HCl salt tested; ATP Conc. 10 μM (Km); read-out: Compound IC50 (nM) PKCd
Sequence of PKCd (Q05655 whole entry, species assumed): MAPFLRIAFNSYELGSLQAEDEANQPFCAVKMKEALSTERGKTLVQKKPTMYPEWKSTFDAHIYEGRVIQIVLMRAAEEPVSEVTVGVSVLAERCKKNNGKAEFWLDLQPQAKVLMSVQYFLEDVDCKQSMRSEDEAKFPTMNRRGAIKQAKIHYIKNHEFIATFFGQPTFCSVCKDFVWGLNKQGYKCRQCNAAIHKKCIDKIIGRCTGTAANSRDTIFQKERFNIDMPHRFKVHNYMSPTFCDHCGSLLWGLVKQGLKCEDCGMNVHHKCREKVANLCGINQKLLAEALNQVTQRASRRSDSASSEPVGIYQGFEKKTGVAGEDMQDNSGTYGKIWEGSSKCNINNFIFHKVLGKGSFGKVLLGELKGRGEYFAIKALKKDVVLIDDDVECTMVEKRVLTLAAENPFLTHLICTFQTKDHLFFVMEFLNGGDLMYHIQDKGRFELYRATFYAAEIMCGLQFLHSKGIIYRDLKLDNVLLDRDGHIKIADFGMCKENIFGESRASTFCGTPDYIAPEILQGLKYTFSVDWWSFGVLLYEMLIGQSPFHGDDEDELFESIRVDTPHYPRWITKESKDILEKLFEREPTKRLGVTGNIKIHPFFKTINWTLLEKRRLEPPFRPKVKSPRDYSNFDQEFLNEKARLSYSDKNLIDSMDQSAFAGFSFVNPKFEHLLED
Method: The HCl salts of S enantiomer and the R enantiomer of compound A were tested against a panel of kinases.
Compounds were received as powder and resuspended to 10 mM DMSO stock. Compounds were tested in 10-dose IC50 mode with a 3-fold serial dilution starting at 10 μM. Control compound, staurosporine, was tested in 10-dose IC50 mode with 4-fold serial dilution starting at 20 μM.
Reaction Conditions: Buffer Conditions: 20 mM HEPES ((4-(2-hydroxyethyl)-1-piperazineethanesulfonic acid; pH 7.5), 10 mM MgCl2, 1 mM EGTA (Ethyleneglycol-bis(p-aminoethyl)-N,N,N′,N′-tetraacetic Acid), 0.01% Brij35, 0.02 mg/ml BSA (Bovine serum albumin), 0.1 mM Na3VO4, 2 mM DTT (Dithiothreitol), 1% DMSO. Reaction Procedure: 1. Prepare indicated substrate in freshly prepared reaction buffer. 2. Deliver required cofactors to the substrate solution above. 3. Deliver indicated kinase into the substrate solution and mix gently. 4. Deliver compounds in DMSO into the kinase reaction mixture utilizing acoustic technology (Echo550). 5. Deliver ^33P-ATP (specific activity 0.01 μCi/μl final) into the reaction mixture to initiate the reaction. 6. Incubate kinase reaction for 120 minutes at room temperature. 7. […] Data Analysis: Kinase activity data were expressed as the percent remaining kinase activity in test samples compared to vehicle (dimethyl sulfoxide) reactions. […]

MAO-A = biological target: T5, MAO-A (Rattus norvegicus, UniProt P21396); test: CEREP panel MAO-A (antagonist radioligand); assay type: binding; settings: HCl salt tested
T5 sequence (P21396 1-526): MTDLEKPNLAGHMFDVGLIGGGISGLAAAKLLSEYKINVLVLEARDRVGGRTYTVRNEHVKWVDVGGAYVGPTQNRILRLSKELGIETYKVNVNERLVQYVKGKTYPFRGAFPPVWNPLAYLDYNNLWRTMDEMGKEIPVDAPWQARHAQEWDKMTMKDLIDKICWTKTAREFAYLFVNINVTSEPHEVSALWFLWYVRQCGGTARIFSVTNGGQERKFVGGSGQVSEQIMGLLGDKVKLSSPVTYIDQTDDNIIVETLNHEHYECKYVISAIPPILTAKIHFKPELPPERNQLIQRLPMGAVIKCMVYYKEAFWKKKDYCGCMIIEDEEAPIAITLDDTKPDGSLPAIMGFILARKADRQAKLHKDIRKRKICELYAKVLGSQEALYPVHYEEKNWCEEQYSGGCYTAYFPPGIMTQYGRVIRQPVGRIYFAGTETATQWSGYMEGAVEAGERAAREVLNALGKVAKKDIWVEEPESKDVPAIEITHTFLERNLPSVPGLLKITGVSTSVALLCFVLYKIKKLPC
Description: as §1, §2

CB1 (h) = biological target: T6, CB1 (h) (Homo sapiens, UniProt P21554); test: CEREP panel CB1 (h) antagonist effect, cAMP HTRF; assay type: cell-based; settings: HCl salt tested; CHO cells, CP 55940 (1 nM)
T6 construct: expressed in transfected cells; host or cells: CHO cells
T6 sequence (P21554 whole entry): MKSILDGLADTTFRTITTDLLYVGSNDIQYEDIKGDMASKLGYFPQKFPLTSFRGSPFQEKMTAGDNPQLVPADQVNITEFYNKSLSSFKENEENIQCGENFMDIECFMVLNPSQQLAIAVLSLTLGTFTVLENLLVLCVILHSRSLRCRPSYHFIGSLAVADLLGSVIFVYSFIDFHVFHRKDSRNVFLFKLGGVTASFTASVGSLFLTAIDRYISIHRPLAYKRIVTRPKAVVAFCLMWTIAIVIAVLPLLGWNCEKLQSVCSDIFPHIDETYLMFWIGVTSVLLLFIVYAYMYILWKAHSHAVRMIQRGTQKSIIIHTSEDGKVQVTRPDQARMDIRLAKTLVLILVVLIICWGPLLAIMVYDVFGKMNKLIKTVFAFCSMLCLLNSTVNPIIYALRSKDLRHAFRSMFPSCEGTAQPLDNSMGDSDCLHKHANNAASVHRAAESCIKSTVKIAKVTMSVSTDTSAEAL
Description: as §1, §2

Sequence of ROCK2 (O75116 whole entry, species assumed): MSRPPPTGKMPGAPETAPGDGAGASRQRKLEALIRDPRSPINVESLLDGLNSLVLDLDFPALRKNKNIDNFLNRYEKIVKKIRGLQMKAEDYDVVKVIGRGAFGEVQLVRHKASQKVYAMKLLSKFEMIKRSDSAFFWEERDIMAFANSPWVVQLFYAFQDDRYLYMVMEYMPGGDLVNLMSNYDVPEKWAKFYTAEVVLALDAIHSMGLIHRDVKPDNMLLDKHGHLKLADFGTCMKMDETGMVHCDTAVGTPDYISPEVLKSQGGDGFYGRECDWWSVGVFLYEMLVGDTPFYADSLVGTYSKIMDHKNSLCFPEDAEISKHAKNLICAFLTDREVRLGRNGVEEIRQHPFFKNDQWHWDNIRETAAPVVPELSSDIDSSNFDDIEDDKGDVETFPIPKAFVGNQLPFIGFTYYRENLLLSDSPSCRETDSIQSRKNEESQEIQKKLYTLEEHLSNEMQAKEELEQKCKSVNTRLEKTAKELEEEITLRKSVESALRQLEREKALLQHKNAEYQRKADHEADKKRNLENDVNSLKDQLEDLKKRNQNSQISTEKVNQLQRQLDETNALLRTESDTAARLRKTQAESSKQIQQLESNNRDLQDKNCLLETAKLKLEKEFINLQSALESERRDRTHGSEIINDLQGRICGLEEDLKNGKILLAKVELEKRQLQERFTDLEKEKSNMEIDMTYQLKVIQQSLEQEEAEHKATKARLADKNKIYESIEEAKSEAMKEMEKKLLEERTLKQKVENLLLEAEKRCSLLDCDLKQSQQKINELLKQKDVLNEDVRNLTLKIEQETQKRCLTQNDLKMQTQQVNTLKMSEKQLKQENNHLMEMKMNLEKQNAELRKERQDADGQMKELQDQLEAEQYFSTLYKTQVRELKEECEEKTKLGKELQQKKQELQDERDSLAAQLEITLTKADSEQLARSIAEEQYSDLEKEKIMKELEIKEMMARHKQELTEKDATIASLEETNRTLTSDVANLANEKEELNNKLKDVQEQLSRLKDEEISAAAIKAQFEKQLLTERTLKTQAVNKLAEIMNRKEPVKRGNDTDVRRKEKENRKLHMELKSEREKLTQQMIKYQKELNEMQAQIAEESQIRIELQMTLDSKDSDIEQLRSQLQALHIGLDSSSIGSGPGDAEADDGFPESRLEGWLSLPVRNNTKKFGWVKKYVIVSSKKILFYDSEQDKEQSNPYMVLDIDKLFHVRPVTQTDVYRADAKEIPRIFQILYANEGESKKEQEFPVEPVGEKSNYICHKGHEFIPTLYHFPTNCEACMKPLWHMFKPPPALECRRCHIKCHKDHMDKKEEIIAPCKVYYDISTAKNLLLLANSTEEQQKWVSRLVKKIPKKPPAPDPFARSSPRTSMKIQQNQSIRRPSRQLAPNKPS

Row | Difference between activities of S- and R-enantiomer against ROCK2 (ROCK2) | pIC50 (Serotonin transporter) | M1 (h) (agonist effect) (EC50) (M1 (h) [1]) | CB2 (h) (agonist effect) (EC50) (CB2 (h)) | pIC50 (M2 (h)) | pIC50 (M1 (h) [2]) | IC50 (PKCd) [nM] | pIC50 (MAO-A) | CB1 (h) (antagonist effect) (IC50) (CB1 (h)) | SMILES
1 | no statistically meaningful difference | 4.96 | Inactive | Inactive | < 4.00 | < 4.52 | 0.9 | 6.09 | Inactive | NCc1ccc(C(=O)Nc2ccncc2F)cc1-c1cccc(C(=O)Nc2ccc(SC[C@H]3CCOC3=O)cc2)c1 [S-enantiomer]
2 | no statistically meaningful difference | 5.22 | Inactive | Inactive | 5.21 | 6.11 | < 0.5 | 5.37 | Inactive | NCc1ccc(C(=O)Nc2ccncc2F)cc1-c1cccc(C(=O)Nc2ccc(SC[C@@H]3CCOC3=O)cc2)c1 [R-enantiomer]
